Measurements published in ChEMBL document CHEMBL3046698, “Synergistic application of target structure-based alignment and 3D-QSAR study of protein tyrosine phosphatase 1B (PTP1B) inhibitors” (Med Chem Res, 2011).
Values joined by “and” are separate entries in the source; they are usually repeats but may differ in a detail not shown here. Equal entries are not always repeated.

Molecular target: T1, Tyrosine-protein phosphatase non-receptor type 1 (Homo sapiens, UniProt P18031)
T1 sequence (P18031 whole entry): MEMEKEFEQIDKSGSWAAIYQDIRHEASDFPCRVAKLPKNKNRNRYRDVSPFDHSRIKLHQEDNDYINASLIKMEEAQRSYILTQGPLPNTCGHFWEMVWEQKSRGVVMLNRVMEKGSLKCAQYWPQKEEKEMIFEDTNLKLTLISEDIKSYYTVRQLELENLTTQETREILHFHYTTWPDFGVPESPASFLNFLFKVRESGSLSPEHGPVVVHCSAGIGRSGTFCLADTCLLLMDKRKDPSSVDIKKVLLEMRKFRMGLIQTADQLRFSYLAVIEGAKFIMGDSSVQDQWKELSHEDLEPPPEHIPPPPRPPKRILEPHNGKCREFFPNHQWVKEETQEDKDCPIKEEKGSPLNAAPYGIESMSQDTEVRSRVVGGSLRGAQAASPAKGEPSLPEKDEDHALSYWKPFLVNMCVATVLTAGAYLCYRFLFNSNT

Ki | SMILES
93.3 µM and 93 µM | CC(=O)C(=O)N(c1ccccc1C(=O)O)c1cccc(C)c1C
24 µM | CC(=O)C(=O)N(c1ccccc1C(=O)O)c1cccc2ccccc12
38.9 µM and 39 µM | CC(=O)C(=O)N(c1ccc2ccccc2c1)c1ccccc1C(=O)O
17 µM | CC(=O)C(=O)N(c1ccccc1C(=O)O)c1cccc2ccc(O)cc12
60.3 µM and 60 µM | CCc1ccccc1N(C(=O)C(C)=O)c1ccccc1C(=O)O
24 µM | CC(=O)C(=O)N(c1ccccc1Cc1ccccc1)c1ccccc1C(=O)O
17 µM | CC(=O)C(=O)N(c1ccccc1CCO)c1ccccc1C(=O)O

Continued, compound first:

SMILES | Ki
COC(=O)c1c(O)cccc1OCCCCNC(=O)[C@H](Cc1ccc(OC(C)C(=O)O)c(C(=O)O)c1)NC(=O)[C@H](Cc1ccccc1)NC(=O)OC(C)(C)C (stereo partly specified) | 0.162 µM
CCc1cc(C[C@H](NC(C)=O)C(=O)NCCCCC(=O)NCCc2ccccc2)ccc1N(C(=O)C(=O)O)c1ccccc1C(=O)O | 3.39 µM and 3.4 µM
CCc1cc(C[C@H](NC(C)=O)C(=O)NCCCCC(=O)NC(Cc2ccccc2)C(N)=O)ccc1N(C(=O)C(=O)O)c1ccccc1C(=O)O (stereo partly specified) | 1.29 µM and 1.3 µM
CCc1cc(C[C@H](NC(C)=O)C(=O)N[C@H](CCSC)C(=O)O)ccc1N(C(=O)C(=O)O)c1ccccc1C(=O)O | 1.74 µM and 1.7 µM
CCc1cc(C[C@H](NC(C)=O)C(=O)NCc2ccc(Cl)cc2)ccc1N(C(=O)C(=O)O)c1ccccc1C(=O)O | 1.2 µM
CCc1cc(C[C@H](NC(C)=O)C(=O)NCc2ccc(OC)cc2)ccc1N(C(=O)C(=O)O)c1ccccc1C(=O)O | 4.79 µM and 4.7 µM
COC(=O)c1c(O)cccc1OCCCCNC(=O)[C@H](Cc1ccc(OC(C(N)=O)C(=O)O)cc1)NC(=O)OC(C)(C)C (stereo partly specified) | 13.8 µM
CC(=O)C(=O)N(c1ccccc1C(=O)O)c1cccc2c1CCCC2 | 74.1 µM and 74 µM
CC(=O)C(=O)N(c1ccccc1C(=O)O)c1ccccc1C(C)C | 35.5 µM and 35 µM
CC(=O)C(=O)N(c1ccccc1/C=C/C(N)=O)c1ccccc1C(=O)O | 11 µM
CC(=O)C(=O)N(c1ccccc1C(=O)O)c1ccccc1N1CCCCC1 | 14.1 µM and 14 µM
COC(=O)c1c(O)cccc1OCCCCNC(=O)C(Cc1ccc(N(CC(C(=O)O)c2ccccc2)C(=O)C(=O)O)cc1)NC(=O)OC(C)(C)C (stereo unspecified) | 15.1 µM and 15.2 µM
CCC(CC(=O)O)N(C(=O)C(=O)O)c1ccc(CC(NC(=O)OC(C)(C)C)C(=O)NCCCCOc2cccc(O)c2C(=O)OC)cc1 (stereo unspecified) | 1.82 µM and 1.8 µM
COC(=O)c1c(O)cccc1OCCCCNC(=O)[C@H](Cc1ccc(OC(C(=O)O)C(=O)NC2CC2)cc1)NC(=O)OC(C)(C)C (stereo partly specified) | 8.51 µM
